Here are results for 29 molecules from patent US5026836A, “6-sulfenamide, 6-sulfinamide and 6-sulfonamide purines, purine nucleosides, purine nucleotides, pharmaceutical compositions, and processes of making” (priority 1988, dated 1991).

Starred links: 1 amine or outer side, 2 acyl side, 3 side chain; linkers in the order of their positions; H or OH if unused. Positions of bridges follow the written chain, without caps; N, C: chain ends. Non-standard residues stand in square brackets, D forms with d. Residues, ends and D or L forms follow the SMILES beside them. Chains are numbered I, II in the order given. Actinocin(9to1) = Cc1c2oc3c(C)ccc(C(=O)[*:1])c3nc-2c(C(=O)[*:2])c(N)c1=O; NMeV = CN[C@H](C(=O)O)C(C)C; Sar = CNCC(=O)O

The subject of data set [1] is L1210 cells. The data set is described as follows: Life span of BDF1 mice inoculated ip with 10^6 L1210 leukemia cells. Conditions: for T/C: single QD day 1 ip (Table 14-b); for Increased life span: qd days 1,3,5,7; for T/C (%): ip day 1, Enantiomer A 37 mg/kg, Enantiomer B 173 mg/kg; for relative activity of the two enantiomers (words): mouse, in vivo. The class given is in vivo, mouse. How it is done:
As illustrative examples of use of the compounds of the invention the following examples are given. […] These standard tests utilize protocols developed under the auspices of the Developmental Therapeutics Program, Division of Cancer Treatment, National Cancer Institute, Bethesda, Md., U.S.A. Except as otherwise indicated the tests conform to these protocols and are evaluated utilizing criteria defined by the protocols.
(§1) Values below 25% are considered capable of producing effective therapy, those below 10% are considered good and those below 5% are considered very good. This expresses the percent of the cells which survived treatment based upon the original cells in the inoculum. Those tests expressed as increases in life span (% ILS) indicate the increased life span of the drug treated group compared to a control group.
As an indicator of reproducible activity, compounds of the invention and other known cancer chemotherapeutic agents were screened against L1210 lymphoid leukemia in vivo utilizing the mouse as a test species. Normal NCI protocols for this test require 10^5 seed cells of the L1210 cell line.
Cytosine Arabinoside must be given every three hours.
Mice were inoculated intraperitoneally on day 0 with a million cells of murine leukemia L1210. Drug was given qd days 1, 4 and 7. Increased life span is the mean increase in the treated group presented as a percentage of the mean life span of control mice.
Mice were inoculated intraperitoneally on day 0 with a million cells of murine leukemia L1210. Drugs were given qd days 1, 3, 5 and 7. Increased life span is presented as a percentage of the mean life span of control mice.

The subject of data set [2] is L1210 cells. The data set is described as follows: Bioassay of viable L1210 cells in brain after intracranial inoculation and ip drug. As to conditions: 24 hr after single ip dose (mg/kg): Methotrexate 12, Adriamycin 3, 6-Mercaptopurine 160, Cytosine Arabinoside 1200, Cyclophosphamide 140, Compound 19 173, Tiazofurin 1200, BCNU 20. Format: in vivo, mouse. The source says:
BDF1 mice were inoculated intracranially on day 0 with 1×10^5 L1210 cells. […] 24 hr after drug delivery the brains were collected, homogenized, and injected ip into untreated mice. Each mouse received the equivalent of half a brain. Thereafter, life span was monitored and, using inoculum-response data as a base of comparison, estimates were made of the numbers of viable cells in treated and control brains.

For data set [3], the system named is Human Colon Adenocarcinoma CX-1. Conditions: data from Goldin et al 1981; activity indicated at ≤20; cited from earlier work.
The nature of data set [4]: Solubility (maximum solubility). The class given is physicochemical.
In data set [5] the test system is L1210 cells. The data set is described as follows: L1210 cells surviving treatment (% of original inoculum). The class given is in vivo, mouse. Conditions: for L1210 cells surviving treatment (% of original inoculum): ip day 1, Enantiomer A 37 mg/kg, Enantiomer B 173 mg/kg.
Source text: as §1
As an indicator of reproducible activity, compounds of the invention and other known cancer chemotherapeutic agents were screened against L1210 lymphoid leukemia in vivo utilizing the mouse as a test species. Normal NCI protocols for this test require 10^5 seed cells of the L1210 cell line. However for the purposes of tests with the L1210 cell line in testing the compounds of the invention for antitumor activity, a log greater, i.e. 10^6 cells were utilized.
Tables 2-a and 2-b illustrate a dose response for Compound 19 against L1210 inoculated mice expressed as both increased life span compared to control and as the number of cells of the original inoculum surviving drug treatment. As is evident from the various regimens of drug treatment shown in Tables 2-a and 2-b, effective therapeutic effects are noted and a dose response to Compound 19 is evident. […] Cytosine Arabinoside must be given every three hours. Test results are given utilizing standard protocols based on mean survival time and are expressed as T/C percentages (treated animals/control animals).

Regarding `NC(=O)c1csc([C@@H]2O[C@H](CO)[C@@H](O)[C@H]2O)n1` [Tiazofurin, reference compound], the “% ILS” value with L1210 cells [1] (single agent day 1, Compound 19 173 mg/kg, Tiazofurin 22 mg/kg (Table 13)) is 44%. For the same molecule, the “Residual cells (% of control brain)” value in the data set with L1210 cells [2] was found to be 2.9%.

For Bleomycin, the “Activity rating δT/δC” value in data set [3] is on record as 51.

On to `CN(C)/N=N/c1[nH]cnc1C(N)=O` [DTIC], for which the “Activity rating δT/δC” value in data set [3] is given as 92.

As to `NSc1nc(N)nc2c1ncn2[C@H]1C[C@H](O)[C@@H](CO)O1` [Compound 45, 2-Amino-9-(2-deoxy-β-D-erythro-pentofuranosyl)-9H-purine-6-sulfenamide], the T/C in the data set on L1210 cells [1] is on record as 172. Moreover, the Max. sol. dosage in data set [4] is 480 mg/kg.

`NS(=O)(=O)c1ncnc2c1ccn2[C@H]1C[C@H](O)[C@@H](CO)O1` [Compound 55, 7-(2-Deoxy-β-D-erythro-pentofuranosyl)pyrrolo[2,3-d]-pyrimidine-4-sulfonamide]: the T/C in the data set on L1210 cells [1] came out at 125. For the same molecule, the Max. sol. dosage in data set [4] came out at 288 mg/kg.

Take `C[C@H]1O[C@@H](n2cnc3c([S+](N)[O-])nc(N)nc32)[C@H](O)[C@@H]1O` (stereo partly drawn) [Compound 42, 2-Amino-9-(5-deoxy-β-D-ribofuranosyl)-9H-purine-6-sulfinamide]: the T/C in the data set with L1210 cells [1] (NaOH vehicle) worked out at 172. In addition, the Max. sol. dosage in data set [4] was 104 mg/kg.

`C[C@H]1O[C@@H](n2cnc3c(S(N)(=O)=O)nc(N)nc32)[C@H](O)[C@@H]1O` [Compound 43, 2-Amino-9-(5-deoxy-β-D-ribofuranosyl)-9H-purine-6-sulfonamide] registered a T/C in the data set with L1210 cells [1] of 130. In data set [4], the Max. sol. dosage was 480 mg/kg.

Take `Nc1nc2c(ncn2[C@@H]2O[C@H](CO)[C@@H](O)[C@H]2O)c(=S)[nH]1` [6-Thioguanosine, reference compound]: the Increased life span came out at 48% in the data set on L1210 cells [1] (8.1 mg/kg/inj injected); 38% in the data set on L1210 cells [1] (13 mg/kg/inj injected); 42% in the data set with L1210 cells [1] (22 mg/kg/inj injected); 45% with L1210 cells [1] (37 mg/kg/inj injected); 42% with L1210 cells [1] (62 mg/kg/inj injected); 42% in the data set with L1210 cells [1] (104 mg/kg/inj injected). Besides, the Increased life span in the data set on L1210 cells [1] (173 mg/kg/inj injected) came out at 52%.

As for `CC[C@]1(O)C[C@@H]2CN(CCc3c([nH]c4ccccc34)[C@@](C(=O)OC)(c3cc4c(cc3OC)N(C)[C@H]3[C@@](O)(C(=O)OC)[C@H](OC(C)=O)[C@]5(CC)C=CCN6CC[C@]43[C@@H]65)C2)C1` [Vinblastine], the “Activity rating δT/δC” value in data set [3] is given as 119.

Consider `O=P1(N(CCCl)CCCl)NCCCO1` (stereo not shown) [Cyclophosphamide, reference compound], for which, in the data set on L1210 cells [2], the “Residual cells (% of control brain)” value amounted to 11.5%. Also, the “Activity rating δT/δC” value in data set [3] is recorded as 113.

Turning to `O=NN(CCCl)C(=O)NCCCl` [BCNU, reference compound], the “Residual cells (% of control brain)” value in the data set with L1210 cells [2] stood at 1.6%. Besides, the “Activity rating δT/δC” value in data set [3] was 63.

Take `Cc1c2oc3c(C)ccc(C(=O)N[C@@H]4C(=O)N[C@H](C(C)C)C(=O)N5CCC[C@H]5C(=O)N(C)CC(=O)N(C)[C@@H](C(C)C)C(=O)O[C@@H]4C)c3nc-2c(C(=O)N[C@@H]2C(=O)N[C@H](C(C)C)C(=O)N3CCC[C@H]3C(=O)N(C)CC(=O)N(C)[C@@H](C(C)C)C(=O)O[C@@H]2C)c(N)c1=O` [Actinomycin D] (I: T[dV]P[Sar][NMeV] / II: T[dV]P[Sar][NMeV]; ester I:1-I:C, II:1-II:C; linker I:N-II:N via Actinocin(9to1)): in data set [3], the “Activity rating δT/δC” value is listed as 73.

Consider `O=NN(CCCl)C(=O)NC1CCCCC1` [CCNU], for which the “Activity rating δT/δC” value in data set [3] was 77.

As for `Nc1nc2nc[nH]c2c(=S)[nH]1` [6-Thioguanine], the “Activity rating δT/δC” value in data set [3] is given as 81.

In turn, `Nc1nc([S+](N)[O-])c2ncn([C@@H]3O[C@H](CO)[C@@H](O)[C@@H]3O)c2n1` (stereo partly drawn) [Compound 50, 2-Amino-9-β-D-arabinofuranosyl-9H-purine-6-sulfinamide] registered a T/C with L1210 cells [1] of 140. In data set [4], the Max. sol. dosage was found to be 800 mg/kg.

With `O=C(O)CCCc1ccc(N(CCCl)CCCl)cc1` [Chlorambucil], the “Activity rating δT/δC” value in data set [3] is 60.

`O=NN(CCCl)C(=O)N[C@H]1C(O)O[C@H](CO)[C@@H](O)[C@@H]1O` (stereo partly shown) [Chlorozotocin]: the “Activity rating δT/δC” value in data set [3] is reported as 75.

As for `CN(Cc1cnc2nc(N)nc(N)c2n1)c1ccc(C(=O)N[C@@H](CCC(=O)O)C(=O)O)cc1` [Methotrexate, reference compound], in the data set on L1210 cells [2], the “Residual cells (% of control brain)” value turned out to be 97%. Further, the “Activity rating δT/δC” value in data set [3] was 66.

On to `N[C@@H](Cc1ccc(N(CCCl)CCCl)cc1)C(=O)O` [Melphalan], for which the “Activity rating δT/δC” value in data set [3] is on record as 101.

In the case of `CO[C@@]12[C@H](COC(N)=O)C3=C(C(=O)C(C)=C(N)C3=O)N1C[C@@H]1N[C@@H]12` [Mitomycin C], the “Activity rating δT/δC” value in data set [3] is 62.

`O=c1[nH]cc(F)c(=O)[nH]1` [5-Fluorouracil]: the “Activity rating δT/δC” value in data set [3] is 88.

`Nc1nc([S+](N)[O-])c2ncn([C@@H]3O[C@H](CO)[C@@H](O)[C@H]3O)c2n1` (single isomer, unassigned) [Enantiomer A]: the “% ILS” value came to 44% with L1210 cells [1] (37 mg/kg/inj bid day 1, total A 70.94, B 1.26, contaminant 1.80 mg/kg); 0% in the data set on L1210 cells [1] (37 mg/kg/inj printed qid day 1, total A 177.35, B 3.15, contaminant 4.50 mg/kg); 22% in the data set with L1210 cells [1] (37 mg/kg/inj qd day 1, total A 35.47, B 0.63, contaminant 0.90 mg/kg); 72% in the data set with L1210 cells [1] (37 mg/kg/inj qid day 1, total A 141.88, B 2.52, contaminant 3.60 mg/kg); 72% in the data set on L1210 cells [1] (37 mg/kg/inj tid day 1, total A 106.41, B 1.89, contaminant 2.70 mg/kg). In addition, the “T/C (%)” value with L1210 cells [1] amounted to 108.7%. Further, the “relative activity of the two enantiomers (words)” value with L1210 cells [1] was “greater activity with respect to enantiomer B because of solubility differences”; in the data set with L1210 cells [1] (listed as enantiomer A), “comparable activity”. For the same molecule, the “Cells surviving treatment (% of original inoc.)” value in the data set with L1210 cells [5] (37 mg/kg/inj bid day 1, total A 70.94 mg/kg) stood at 10%; in the data set on L1210 cells [5] (37 mg/kg/inj qd day 1, total A 35.47 mg/kg), 64%; with L1210 cells [5] (37 mg/kg/inj qid day 1, total A 141.88 mg/kg), 1%; with L1210 cells [5] (37 mg/kg/inj tid day 1, total A 106.41 mg/kg), 1%. For the same molecule, the “L1210 cells surviving treatment (% of original inoculum)” value with L1210 cells [5] amounted to 182.8%. Further, in data set [4], the solubility entry is on record as “about 3.7 mg per ml”.

As for `CC[C@]1(O)C[C@H]2CN(CCc3c([nH]c4ccccc34)[C@@](C(=O)OC)(c3cc4c(cc3OC)N(C=O)[C@H]3[C@@](O)(C(=O)OC)[C@H](OC(C)=O)[C@]5(CC)C=CCN6CC[C@]43[C@@H]65)C2)C1` [Vincristine], in data set [3], the “Activity rating δT/δC” value is 89.

Take `N.N.[Cl][Pt][Cl]` [Cis-Platinum]: in data set [3], the “Activity rating δT/δC” value is given as 66.

Consider `CC1CCC(NC(=O)N(CCCl)N=O)CC1` (stereo not shown) [Methyl CCNU], for which, in data set [3], the “Activity rating δT/δC” value is 83.

On to `CN(C)c1nc(N(C)C)nc(N(C)C)n1` [Hexamethylmelamine], for which the “Activity rating δT/δC” value in data set [3] was 85.

Regarding `CNNCc1ccc(C(=O)NC(C)C)cc1` [Procarbazine], the “Activity rating δT/δC” value in data set [3] is 60.

As for `Nc1nc([S+](N)[O-])c2ncn([C@@H]3O[C@H](CO)[C@@H](O)[C@H]3O)c2n1` (single isomer, unassigned) [Enantiomer B], in the data set with L1210 cells [1], the “T/C (%)” value stood at 144.9% and the “relative activity of the two enantiomers (words)” value was “comparable activity”. In addition, the “L1210 cells surviving treatment (% of original inoculum)” value with L1210 cells [5] is 7.5%. Further, the solubility entry in data set [4] is “about 17.3 mg per ml”.

With `COc1cccc2c1C(=O)c1c(O)c3c(c(O)c1C2=O)C[C@@](O)(C(=O)CO)C[C@@H]3O[C@H]1C[C@H](N)[C@H](O)[C@H](C)O1` [Adriamycin, reference compound], the “Residual cells (% of control brain)” value with L1210 cells [2] is given as 89.5%. Also, the “Activity rating δT/δC” value in data set [3] was 72.
